Patent EP0434364A2, “Benzodiazepine analogs for treating panic syndrome and for directly inducing analgesia” (MERCK & CO. INC., priority 1989, dated 1991)
Where two headings read alike, the source gives them in different places. Ends that are not written are not given here.

Key:
CCK Receptor (Pancreas) = biological target: T1, CCK Receptor (Pancreas) (Rattus norvegicus, UniProt P30551); assay: CCK Receptor Binding (Pancreas), inhibition of 125I-CCK-33 binding; design: species or system Sprague-Dawley rats
T1 construct: The whole pancreas was dissected free of fat tissue and was homogenized; from tissue; host or cells: rat whole pancreas membranes
T1 sequence (P30551 1-444): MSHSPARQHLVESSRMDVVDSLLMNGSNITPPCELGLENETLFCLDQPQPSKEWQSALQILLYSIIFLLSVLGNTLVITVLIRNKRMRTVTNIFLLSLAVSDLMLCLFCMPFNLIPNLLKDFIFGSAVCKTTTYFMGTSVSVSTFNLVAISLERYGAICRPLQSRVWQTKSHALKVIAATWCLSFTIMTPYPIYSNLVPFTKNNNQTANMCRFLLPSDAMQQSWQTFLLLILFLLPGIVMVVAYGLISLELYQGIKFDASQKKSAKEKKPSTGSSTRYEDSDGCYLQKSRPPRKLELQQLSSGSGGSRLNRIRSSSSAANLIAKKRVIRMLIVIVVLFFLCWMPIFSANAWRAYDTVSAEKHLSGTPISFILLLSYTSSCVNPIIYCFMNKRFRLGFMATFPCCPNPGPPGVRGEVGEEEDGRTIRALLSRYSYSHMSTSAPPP
Experimental: CCK-33 was radiolabeled with ¹²⁵I-Bolton Hunter reagent (2000 Ci/mmole) as described by Sankara et al. (J. Biol. Chem. 254: 9349-9351, 1979). Receptor binding was performed according to Innis and Snyder (Proc. Natl. Acad. Sci. 77, 6917-6921, 1980) with the minor modification of adding the additional protease inhibitors, phenylmethane sulfonyl fluoride and o-phenanthroline.
Male Sprague-Dawley rats (200-350g) were sacrificed by decapitation. The whole pancreas was dissected free of fat tissue and was homogenized in 20 volumes of ice-cold 50 mM Tris HCI (pH 7.7 at 25°C) with a Brinkmann Polytron PT 10. The homogenates were centrifuged at 48,000 g for 10 min. Pellets were resuspended in Tris Buffer, centrifuged as above and resuspended in 200 volumes of binding assay buffer (50 mM Tris HCI, pH 7.7 at 25°C, 5 mM dithiothrietol, 0.1 mM bacitracin, 1.2 mM phenylmethane sulfonyl fluoride and 0.5 mM o-phenanthroline). […] All assays were run in duplicate or triplicate. The reaction mixtures were incubated at 37°C for 30 minutes and centrifuged in a Beckman Microfuge (4 minutes) immediately after adding 1 ml of ice-cold incubation buffer. The supernatant was aspirated and discarded, pellets were counted with a Beckman gamma 5000. For Scatchard analysis (Ann. N.Y. Acad. Sci. 51: 660, 1949), ¹²⁵I-CCK-33 was progressively diluted with increasing concentrations of CCK-33.

Gastrin Receptor = biological target: T2, Gastrin Receptor (Cavia porcellus, UniProt H0VZC5); assay: Gastrin Receptor Binding in Guinea Pig Gastric Glands (125I-gastrin)
T2 construct: The washed guinea pig gastric glands prepared as above were resuspended; from tissue; host or cells: guinea pig gastric mucosal glands (intact glands after collagenase)
T2 sequence (H0VZC5 1-426): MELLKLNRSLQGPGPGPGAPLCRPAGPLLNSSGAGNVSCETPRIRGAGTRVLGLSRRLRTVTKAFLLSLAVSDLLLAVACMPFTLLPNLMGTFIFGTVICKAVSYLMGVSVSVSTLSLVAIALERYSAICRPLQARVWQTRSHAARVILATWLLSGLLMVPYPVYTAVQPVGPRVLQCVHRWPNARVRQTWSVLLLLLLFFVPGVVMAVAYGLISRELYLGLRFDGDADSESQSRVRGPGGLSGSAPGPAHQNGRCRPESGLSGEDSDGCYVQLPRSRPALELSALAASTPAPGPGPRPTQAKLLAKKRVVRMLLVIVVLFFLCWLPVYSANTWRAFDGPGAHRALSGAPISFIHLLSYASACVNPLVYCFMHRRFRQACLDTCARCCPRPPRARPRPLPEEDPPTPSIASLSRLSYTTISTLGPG

DBA2 mice = assay: Black/white exploration test (animal model of anxiety); type: in vivo; conditions: for difference in time spent in the black and white side / active dose range / preference for rearing in the black side: mice; for active dose range: black/white exploration test
From the text: The black/white exploration test [Crawley et al. Pharmacology, Biochemistry and Behav. 13, 167 (1980)] is a simple animal model of anxiety. Rodents placed in a two compartment box which consists of a brightly lit, white painted side and a dimly lit, black painted side, display a marked preference for the black side of the apparatus. This behavior is caused by the aversive properties of the brightly lit, white painted section. Classical anxiolytic drugs [such as diazepam, see Crawley, supra] and novel anxiolytic drugs [such as 5HT₃ antagonists, see Jones et al. Br. J. Pharm. 93, 985 (1988)] decrease the preference of the animal for the black dimly lit side of the apparatus.
A. Naive male DBA2 mice (25-30) were housed on a reversed light/dark cycle and tested during the dark phase of the cycle under dim red light. The apparatus consisted of an open topped box (40cm long X 27 cm wide X 27 cm high) divided into a small area (2/5) and a large area (3/5) by a partition that extended 20 cm above the walls. There was a 7.5 X 7.5 cm opening in the partition at floor level. The small compartment was painted black and the large compartment white. The floor of each compartment was marked into 9 cm squares. The white compartment was illuminated by a 100 W tungsten bulb 17 cm above the box and the black compartment by a similarly placed 60 W red bulb.
Animals that had been injected with drug or vehicle were placed individually into the centre of the white area and their behavior observed during a 5 minute period by remote video recording. Four behavioral parameters were recorded every minute: the number of exploratory rears in the white and black sections, the number of line crossings in the black and white sections, the number of transitions between the two sections and the time spent in the black and white sections. Animals were tested in treatment groups of 8-10 and vehicle controls were run on each test day. Data were analysed by ANOVA and Dunnetts test.

Sprague Dawley rats = assay: Exploratory/locomotor activity in automated activity cages (novel environment); type: in vivo
Experimental: B. The effects of CCK-8 and compound A on the exploratory behavior of the rat were examined in automated activity cages and by direct observation. It is known that exogenous CCK-8 decreases exploratory behavior in rats in a novel environment by accelerating the process of habituation. [See Crawley, Pharm. Biochem & Behav. 20, 23-27 (1984).]
Expt 1. Male Sprague Dawley rats were injected ([…].) with CCK-8 and immediately placed in automated activity cages. Activity was measured for 30 minutes past injection.
Expt 2. Male SD rats were injected (s.c.) with the CCK antagonist compound A (0.0001-10mg/kg) and immediately placed in the automated activity cages. […] As the anxiolytic drug chlordiazepoxide also increases spontaneous locomotor activity in rats in a novel environment [(McElroy et al. Psychopharm. 85: 224-226 (1985)] these findings are consistent with an anxiolytic action of Compound A useful in the treatment of panic disorder.

rats = assay: Exploration in a novel environment by direct observation (perspex cage); type: in vivo; conditions: 0.1 mg/kg, 15 minute period 15 minutes after treatment
Experimental: Expt 3. In order to assess further the effect of Compound A on exploration in a novel environment, the motoric hehaviors of rats placed in a perspex cage was recorded by direct observation for a 15 minute period 15 minutes after treatment with Compound A.
Experimenters (unaware of the treatments the animals had received) recorded the frequency and duration of rearing, sniffing, grooming and cage crossing using a keypad interfaced to a BBC microcomputer.

CN1C(=O)C(NC(=O)c2cc3ccccc3[nH]2)N=C(c2ccccn2)c2ccccc21 (racemic) [Example 24, (RS)-N-(2,3-Dihydro-1-methyl-2-oxo-5-(2-pyridyl)-1H-1,4-benzodiazepin-3-yl)-1H-indole-2-carboxamide]
IC50 (CCK Receptor (Pancreas)): 0.00037 µM
IC50 (Gastrin Receptor): 0.16 µM

CN1C(=O)[C@@H](NC(=O)c2cc3ccccc3[nH]2)N=C(c2ccccc2)c2ccccc21 [Example 16, 3(S)-(-)-1,3-Dihydro-3-(2-indolecarbonylamino)-1-methyl-5-phenyl-2H-1,4-benzodiazepin-2-one]
preference for locomotion (line crossings) in the black side (DBA2 mice; mice, 0.5, 5.0 and 500 ug/kg): abolished
difference in time spent in the black and white side (DBA2 mice; 5.0 and 500 ug/kg): abolished
active dose range (DBA2 mice): 0.05 to 5.0 µg/kg
preference for rearing in the black side (DBA2 mice; doses of 0.05, 0.5, 5.0 and 500 ug/kg): significantly decreased
habituation and period of exploratory activity (Sprague Dawley rats; s.c., 0.0001-10mg/kg, F(6,124) = 2.54, p<0.05): delayed habituation and prolonged the period of exploratory activity
levels of activity (Sprague Dawley rats; s.c., 0.1 mg/kg, at 25 minutes, p<0.01): significantly above controls
activity, higher and lower doses (Sprague Dawley rats; s.c., doses higher and lower than 0.1 mg/kg, at 25 minutes, bell-shaped dose response curve): no significant effect
Sniffing (rats; P<0.01): significantly increased
rearing (rats; P<0.01): significantly increased
cage crossing (rats; P<0.05): significantly increased

CN1C(=O)C(NC(=O)c2cc3ccccc3[nH]2)N=C(c2ccncc2)c2ccccc21 (racemic) [Example 17, 1,3-Dihydro-3(RS)-(2-indolecarbonylamino)-1-methyl-5-(4-pyridyl)-2H-1,4-benzodiazepin-2-one]
IC50 (CCK Receptor (Pancreas)): 0.0068 µM
IC50 (Gastrin Receptor): 0.66 µM

Cc1cccc(NC(=O)N[C@H]2N=C(c3ccccc3)c3ccccc3N(C)C2=O)c1 [Example 11, (S)-N-(2,3-Dihydro-1-methyl-2-oxo-5-phenyl-1H-1,4-benzodiazepin-3-yl)-N′-(3-methylphonyl)-urea]
IC50 (CCK Receptor (Pancreas)): 0.0041 µM
IC50 (Gastrin Receptor): 0.092 µM

CN1C(=O)[C@H](NC(=O)Nc2cc3c(cn2)[nH]c2ccccc23)N=C(c2ccccc2)c2ccccc21 [Example 22]
IC50 (CCK Receptor (Pancreas)): 0.0044 µM
IC50 (Gastrin Receptor): 1.3 µM

Cc1cccc(NC(=O)N[C@@H]2N=C(c3ccccc3)c3ccccc3N(C)C2=O)c1 [Example 5, (R)-N-(2,3-Dihydro-1-methyl-2-oxo-5-phenyl-1H-1,4-benzodiazepin-3-yl)-N′-(3-methylphenyl)-urea]
IC50 (CCK Receptor (Pancreas); rat pancreas membranes, 125I-CCK-33, 37°C 30 minutes, read-out: IC50(µM) 125I-CCK Pancreas): 0.28 µM
active dose range (DBA2 mice): 0.005 to 0.05 µg/kg
difference in time spent in the black and white side (DBA2 mice; dose of 0.005 ug/kg): decreased
preference for rearing in the black side (DBA2 mice; dose of 0.05 ug/kg): abolished

CCK-8 (DYMGWMDF; ends and bridges not checked; UniProt P06307 96-103, looked up) [reference compound]
locomotor activity (Sprague Dawley rats; i.p., 0.5-16µg/kg, 30 minutes post injection, F(6,87) = 3.21 (p<0.01)): dose-dependently decreased

CN1C(=O)C(NC(=O)Nc2ccc3c(c2)CCC3)N=C(c2ccccc2)c2ccccc21 (racemic) [Example 26, (RS)-N-(2,3-dihydro-1-methyl-2-oxo-5-phenyl-1H-1,4-benzodiazepin-3-yl)-N′-(5-indanyl)urea]
IC50 (CCK Receptor (Pancreas)): 0.075 µM
IC50 (Gastrin Receptor; guinea pig gastric glands, 125I-gastrin, 25°C 30 minutes, read-out: IC50(µM) 125I-Gastrin Gastric Glands): 0.0019 µM

Cc1cccc(NC(=O)NC2N=C(c3ccccn3)c3ccccc3N(CC(C)C)C2=O)c1 (racemic) [Example 25, (RS)-N-(2,3-Dihydro-1-(2-methylpropyl)-2-oxo-5-(2-pyridyl)-1H-1,4-benzodiazepin-3-yl)-N′-(3-methyl-phenyl)-urea]
IC50 (CCK Receptor (Pancreas)): 0.49 µM
IC50 (Gastrin Receptor): 0.00067 µM

CN1C(=O)[C@@H](NC(=O)c2cc3cc(O)ccc3[nH]2)N=C(c2ccccc2)c2ccccc21 [Example 27, 1,3-Dihydro-3-(5-hydroxyindole-2-carbonylamino)-1-methyl-5-phenyl-2H-1,4-benzodiapin-2-one]
IC50 (CCK Receptor (Pancreas)): 0.0033 µM
